Measurements from patent US8828995B2, “Branched oxathiazine derivatives, method for the production thereof, use thereof as medicine and drug containing said derivatives and use thereof” (Sanofi, priority 2011, dated 2014).

Each molecule was assayed against human 11β-HSD1 microsome fraction (Homo sapiens, UniProt P28845) (assay: Enzymatic 11beta-HSD1 test (SPA-based detection)). Conditions: IC50 (nM), Biological activity, [1,2-3H]-cortisone, 0.25 mM NADPH, 37° C. for 1 hour.
Sequence of human 11β-HSD1 microsome fraction (P28845 whole entry): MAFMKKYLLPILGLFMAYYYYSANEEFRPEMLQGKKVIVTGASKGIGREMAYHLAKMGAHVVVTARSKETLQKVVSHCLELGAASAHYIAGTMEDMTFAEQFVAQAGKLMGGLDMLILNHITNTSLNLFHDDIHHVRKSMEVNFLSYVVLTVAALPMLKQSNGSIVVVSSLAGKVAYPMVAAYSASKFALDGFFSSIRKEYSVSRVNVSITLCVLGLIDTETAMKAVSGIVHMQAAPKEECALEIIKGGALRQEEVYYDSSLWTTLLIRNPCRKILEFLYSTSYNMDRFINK
Procedure: Enzymatic 11beta-HSD1 test:
Protein and radioactive substrate were dispensed with a Biomek FX unit (Beckman Coulter) for handling liquids. The test compounds were added with a Cybi-Well equipped with a 90 nl pin tool (CyBio).

SMILES	IC50
CC12CCCCC1(C)S(=O)(=O)N=C(N[C@@H](CCO)c1cccnc1)O2 (single isomer, unassigned) [Example 34]	353 nM
O=S1(=O)N=C(N[C@@H](CCO)c2cccc(F)c2)OC2CCCCC21 (stereo partly drawn) [Example 10, (S)-3-(−1,1-Dioxo-4a,5,6,7,8,8a-hexahydro-1H-1lambda6-benzo[1,4,3]oxathiazin-3-ylamino)-3-(3-fluoro-phenyl)-propan-1-ol]	104 nM
O=S1(=O)N=C(N[C@@H](CCO)c2ccc(F)cc2)OC2CCCCC21 (single isomer, unassigned) [Example 20]	13 nM
O=S1(=O)N=C(N[C@@H](CO)Cc2ccccc2)OC2CCCCC21 (stereo partly drawn) [Example 2, (R)-2-(−1,1-Dioxo-4a,5,6,7,8,8a-hexahydro-1H-1lambda6-benzo[1,4,3]oxathiazin-3-ylamino)-3-phenyl-propan-1-ol]	575 nM
O=S1(=O)N=C(N[C@@H](CCO)c2cccc(F)c2)OC2CCCCC21 (stereo partly drawn) [Example 17, (S)-3-(−1,1-Dioxo-4a,5,6,7,8,8a-hexahydro-1H-1lambda6-benzo[1,4,3]oxathiazin-3-ylamino)-3-(3-fluoro-phenyl)-propan-1-ol]	27 nM
CC12CCCCC1(C)S(=O)(=O)N=C(N[C@@H](CCO)c1ccccc1)O2 (single isomer, unassigned) [Example 32]	4 nM
CC12CCCCC1(C)S(=O)(=O)N=C(N[C@@H](CCO)c1cccnc1)O2 (single isomer, unassigned) [Example 33]	9 nM
NS(=O)(=O)CC(NC1=NS(=O)(=O)[C@@H]2CCCC[C@@H]2O1)c1ccccc1 (stereo partly drawn) [Example 30, 2-((4aS,8aR)-1,1-Dioxo-4a,5,6,7,8,8a-hexahydro-1H-1lambda6-benzo[1,4,3]oxathiazin-3-ylamino)-2-phenyl-ethanesulfonamide]	11 nM
O=S1(=O)N=C(N[C@@H](CCO)c2ccccc2)OC2CCC(F)(F)CC21 (stereo partly drawn) [Example 28, (S)-3-(7,7-Difluoro-1,1-dioxo-4a,5,6,7,8,8a-hexahydro-1H-1lambda6-benzo[1,4,3]oxathiazin-3-ylamino)-3-phenyl-propan-1-ol]	445 nM
NS(=O)(=O)CC(NC1=NS(=O)(=O)[C@@H]2CCCC[C@@H]2O1)c1ccccc1 (stereo partly drawn) [Example 29, 2-((4aS,8aR)-1,1-Dioxo-4a,5,6,7,8,8a-hexahydro-1H-1lambda6-benzo[1,4,3]oxathiazin-3-ylamino)-2-phenyl-ethanesulfonamide]	15 nM
O=S1(=O)N=C(N[C@@H](CCO)c2ccccc2)OC2CCOCC21 (single isomer, unassigned) [Example 26]	742 nM
O=S1(=O)N=C(N[C@@H](CCO)c2ccc(F)cc2)OC2CCCCC21 (stereo partly drawn) [Example 18, (S)-3-(−1,1-Dioxo-4a,5,6,7,8,8a-hexahydro-1H-1lambda6-benzo[1,4,3]oxathiazin-3-ylamino)-3-(4-fluoro-phenyl)-propan-1-ol]	4 nM
CC12CCCCC1(C)S(=O)(=O)N=C(N[C@@H](CCO)c1ccccc1)O2 (single isomer, unassigned) [Example 31]	34 nM
O=S1(=O)N=C(N[C@@H](CCO)c2ccc(F)cc2)OC2CCCCC21 (single isomer, unassigned) [Example 19]	11 nM
O=S1(=O)N=C(N[C@H](CO)Cc2ccccc2)OC2CCCCC21 (stereo partly drawn) [Example 3, (S)-2-(−1,1-Dioxo-4a,5,6,7,8,8a-hexahydro-1H-1lambda6-benzo[1,4,3]oxathiazin-3-ylamino)-3-phenyl-propan-1-ol]	24 nM
O=S1(=O)N=C(N[C@@H](CCO)c2cccnc2)O[C@H]2CCCC[C@H]21 [Example 25, (S)-3-((4aS,8aR)-1,1-Dioxo-4a,5,6,7,8,8a-hexahydro-1H-1lambda6-benzo[1,4,3]oxathiazin-3-ylamino)-3-pyridin-3-yl-propan-1-ol]	25 nM
O=S1(=O)N=C(N[C@@H](CCO)c2ccc(F)cc2)OC2CCCCC21 (stereo partly drawn) [Example 9, (S)-3-(−1,1-Dioxo-4a,5,6,7,8,8a-hexahydro-1H-1lambda6-benzo[1,4,3]oxathiazin-3-ylamino)-3-(4-fluoro-phenyl)-propan-1-ol]	5 nM
O=S1(=O)N=C(N[C@@H](CCO)c2ccccc2)OC2CCOCC21 (single isomer, unassigned) [Example 27]	62 nM
